Columns and labels:
[1] = two compartment model, nonlinear regression fit
[2] = man and rodents; cited from earlier work
[3] = in vivo; details: Sprague Dawley, rat, intravenous, 10 mg DTX equivalent/kg
[4] = rat, in vivo
[5] = rat, in vivo; remark: listed apart in the source
[6] = rat, in vivo; remark: listed apart in the source

| Molecule | CLD (distribution clearance) [1] | VC (volume of the central compartment) [1] | VP (volume of the peripheral compartment) [1] | Vmax (nonlinear clearance, all remaining routes) [1] | renal clearance contribution to DTX clearance [2] | clearance ([3]; plasma and bile) | Km ([3]; plasma) | tissue distribution phase half-life (t1/2) [4] | CL ([4]; iv) | V (apparent volume of distribution) ([4]; iv) | t1/2 (terminal elimination half-life) ([4]; iv) | percentage of the total 8h biliary metabolites excreted as HDTX (%HDTX) [5] | cumulative 24h urinary DTX excretion [6] |
| --- | --- | --- | --- | --- | --- | --- | --- | --- | --- | --- | --- | --- | --- |
| CC(=O)O[C@@]12CO[C@@H]1C[C@H](O)[C@@]1(C)C(=O)[C@H](O)C3=C(C)[C@@H](OC(=O)[C@H](O)[C@@H](NC(=O)OC(C)(C)C)c4ccccc4)C[C@@](O)([C@@H](OC(=O)c4ccccc4)[C@H]21)C3(C)C [DTX, Docetaxel] | 2202 mL/h | 760 mL | 5811 mL | 391464 ng/h | < 10% | 3.53 mL/min | 0.124 µg/mL | – | – | – | – | – | – |
| Taxotere | – | – | – | – | – | – | – | ~ 30 min | 86.7 mL/min/kg | 3.401 L/kg | 3 h | 82±12% | 2.36 ± 0.98 % injected dose |
